Results: patent publication US20120034613A1, “Apparatus and Method for Testing Relationships Between Gene Expression and Physical Appearance of Skin” (NSE Products, Inc., priority 2010, published 2012)

Test system: EpidermFT™ Skin Model (EFT-400) full thickness skin cultures
Assay: Affymetrix GeneChip HG U133 Plus 2.0 microarray global gene expression, agent-exposed vs untreated skin cultures
Assay type: cell-based, human
Details: Salicin 0.5% vs Untreated Control

## OCc1ccccc1O[C@@H]1O[C@H](CO)[C@@H](O)[C@H](O)[C@H]1O [Salicin, 2-(Hydroxymethyl)phenyl β-D-glucospyranoside]
24 hr
  Direction KLK1 (216699_s_at): down
  Direction KRT5 (201820_at): down
  Direction KRT6A (209125_at): down
  Direction KRT10 (207023_x_at): down
  Direction KRTCAP3 (235148_at): down
  Direction LMNA (212089_at): down
  Direction LMNA (1554600_s_at): down
  Direction LMNB1 (203276_at): down
  Direction LOC284837 (1563088_a_at): down
  Direction LOC286440 (209733_at): down
  Direction LOC400027 (226413_at): down
  Direction LOC401233 (1558882_at): down
  Direction LOC648245 (227739_at): down
  Direction LOC652968 (233528_s_at): down
  Direction LOC727820 (227384_s_at): down
  Direction LOC100128443 /// MAST4 (210958_s_at): down
  Direction LOC100128822 (235174_s_at): down
  Direction LOC100130837 (242255_at): down
  Direction LOC100131262 (1558152_at): down
  Direction LOC100131851 /// LOC100134497 /// LOC401002 /// LOC646674 /// SSBP3 (222482_at): down
  Direction LOC100133772 /// SLC16A5 (206600_s_at): down
  Direction LOC100134937 (229685_at): down
  Direction LPHN1 (47560_at): down
  Direction LY75 (205668_at): down
  Direction LYSMD4 (228954_at): down
  Direction MAFB (218559_s_at): down
  Direction MAPRE2 (202501_at): down
  Direction MEGF9 (212831_at): down
  Direction MFAP5 (213764_s_at): down
  Direction MIB2 (226644_at): down
  Direction MPP7 (238451_at): down
  Direction MTHFR (226929_at): down
  Direction MTMR1 (214975_s_at): down
  Direction MUC1 (213693_s_at): down
  Direction MYO18A /// TIAF1 (202039_at): down
  Direction NBEAL2 (212443_at): down
  Direction NCF2 (209949_at): down
  Direction NCRNA00086 (238697_at): down
  Direction PAIP1 (208051_s_at): down
  Direction PAIP2B (221868_at): down
  Direction PAWR (204005_s_at): down
  Direction PAWR (229515_at): down
  Direction PDIK1L (227255_at): down
  Direction PERP (217744_s_at): down
  Direction PIGW (1558292_s_at): down
  Direction PLEKHA2 (225136_at): down
  Direction PLS3 (201215_at): down
  Direction PNMA2 (209598_at): down
  Direction POLE2 (205909_at): down
  Direction POLH (231115_at): down
  Direction POLR3B (219459_at): down
  Direction POU3F1 (208345_s_at): down
  Direction PPAP2C (209529_at): down
  Direction PPP1CB (201409_s_at): down
  Direction PPP2CA (208652_at): down
  Direction PRDX2 (39729_at): down
  Direction PRKX (204061_at): down
  Direction PTCH1 (209815_at): down
  Direction PTGFR (1555097_a_at): down
  Direction PVRL1 (225211_at): down
  Direction RAB7B (1553982_a_at): down
  Direction RAPGEFL1 (218657_at): down
  Direction RHOV (241990_at): down
  Direction RICS (203431_s_at): down
  Direction RNF170 (226104_at): down
  Direction RORA (235567_at): down
  Direction RPS6KA5 (204633_s_at): down
  Direction RPS6KB2 (203777_s_at): down
  Direction SCRN3 (222849_s_at): down
  Direction SDCCAG8 (243963_at): down
  Direction SEMA4D (203528_at): down
  Direction SERPINB1 (213572_s_at): down
  Direction SETBP1 (227478_at): down
  Direction SHROOM2 (204967_at): down
  Direction SLC5A3 (212944_at): down
  Direction SLC24A3 (219090_at): down
  Direction SLC45A4 (225598_at): down
  Direction SLCO3A1 (219229_at): down
  Direction SMAP2 (225282_at): down
  Direction SMCR7 (235896_s_at): down
  Direction SNX21 (1553960_at): down
  Direction SNX24 (218705_s_at): down
  Direction SORD (201563_at): down
  Direction ST8SIA4 (230836_at): down
  Direction STK24 (208854_s_at): down
  Direction SYNGR2 (201079_at): down
  Direction TANC1 (225308_s_at): down
  Direction TCEA3 (226388_at): down
  Direction TCHP (223455_at): down
  Direction TGOLN2 (1554608_at): down
  Direction THBD (203888_at): down
  Direction TIMM22 (219184_x_at): down
  Direction TMC5 (222904_s_at): down
  Direction TMEM19 (226860_at): down
  Direction TMEM45A (219410_at): down
  Direction TMEM50B (225182_at): down
  Direction TMEM80 (65630_at): down
  Direction TP53I3 (210609_s_at): down
  Direction TRAF3IP2 (202987_at): down
  Direction TRIM2 (202342_s_at): down
  Direction TTC30B (1554588_a_at): down
  Direction VPS4B (218171_at): down
  Direction WNK1 (39313_at): down
  Direction WNK1 (211993_at): down
  Direction ZBTB1 (1557036_at): down
  Direction ZDHHC21 (241946_at): down
  Direction ZFYVE21 (219929_s_at): down
  Direction ZHX1 (223213_s_at): down
  Direction ZHX1 (223214_s_at): down
  Direction ZNF85 (1554445_at): down
  Direction ZNF561 (235200_at): down
  Direction ZNF589 (219968_at): down
  Direction ZNF823 (229732_at): down
24 hr treatment
  Direction ABHD2 (205566_at): up
